Where a SMILES comes first, the peptide text is derived from it. [ ]: non-standard residue; d: D form. The star is where a group is joined. Orn = NCCC[CH](N)C(=O)O; Boc = CC(C)(C)OC(=O)*

Broadly, the logP is a log measure of how a compound divides between an organic and an aqueous phase. Regarding `c1ccc2c3c([nH]c2c1)CN1CCNCC1C3` (stereo not drawn), the lipophilicity (logP) came to 0.36.
Compound `COC(=O)c1ccc2[nH]ccc2c1` had a logP of 2.58.
The compound `O=C(CCn1cnc([N+](=O)[O-])n1)NCCO` registered a lipophilicity (logP) of -1.32.
Regarding `C#CCOc1c(Cl)cc(NC=NOCCCC)cc1Cl`, the logP was found to be 4.4.
In turn, `CC1CC(C(=O)O)=C(C(=O)O)C(C)C1` (stereo not drawn) had a logP of 1.53.
The value for `OC1CCN(CCCc2ccccc2COc2ccccc2)CC1` was 3.21; that for `CC(C)(C)C(=O)CC(C(O)C(C)(C)C)n1cncn1` (stereo not drawn) was 1.95; that for `CN1C(=O)C(=O)c2ccccc2C1=O` was 0.6.
Regarding `COC(C)(C(=O)O)c1ccccc1` (stereo not drawn), the logP was 1.64.
For `Clc1cc2oc3c(Cl)cc(Cl)c(Cl)c3c2cc1Cl`, the lipophilicity (logP) came to 6.26.
As to `NC1C2CCC1c1ccccc1C2` (stereo not drawn), the logP amounted to 1.63.
The value for `CC(O)COc1ccccc1` (stereo not drawn) was 1.61; that for `CC(C)N1C(=O)C(=O)c2ccccc2C1=O` was 1.6; that for `CS(=O)(=O)CCOCn1ccnc1C=NO` was -0.84.
The value for `NS(=O)(=O)c1cc(C(=O)O)cc(N2CCCC2)c1Oc1ccccc1` was 3.92; that for `CCOC(=O)C(C)Oc1ccc(Oc2cnc3ccccc3n2)cc1` (stereo not drawn) was 3.47; that for `COc1ccccc1SCc1ccccc1CCCN1CCC(O)CC1` was 3.58.
The value for `O=c1n[n+]([O-])ccn1Cc1ccccc1` was 0.19.
In turn, `O=C(c1ccc(F)cc1)C1CCN(CCn2c(=O)[nH]c3ccccc3c2=O)CC1` came in with a log partition coefficient (logP) of 3.29.
Take `CSCCCNC(=O)C(F)(F)Cn1cnc([N+](=O)[O-])n1`: the logP worked out at 0.76.
The value for `NC(=Nc1ccccc1)NN=Cc1ccc2ccccc2n1` was 0.99; that for `O=C(O)c1cc(Oc2cc(C(F)(F)F)ccc2Cl)ccc1[N+](=O)[O-]` was 3.7.
Under `C=CCn1cnc2c(=O)[nH]c(Nc3ccccc3)nc21` stands 1.75.
The value for `CCCCCCC(=O)OC(C(=O)NC1C(=O)N2C(C(=O)O)=C(C)CSC12)c1ccccc1` (stereo not drawn) was 3.23; that for `c1ccc2c(c1)Cc1ccccc1S2` was 3.86; that for `CCOc1cccc(OCc2ccccc2CCCN2CCC(O)CC2)c1` was 3.5.
`Clc1ccc(Sc2nc(C(Cl)(Cl)Cl)nc(C(Cl)(Cl)Cl)n2)cc1` gave a logP of 6.67.
The value for `CCCCCCOc1cccc(NC(=O)OCCN2CCOCC2)c1` was 4.73; that for `CN(C)C=Nc1ccn(C2OC(CO)C(O)C2O)c(=O)n1` (stereo not drawn) was -1.68; that for `CC(=O)C1(O)C(C)CC2C3CCC4=CC(=O)C=CC4(C)C3(F)C(O)CC21C` (stereo not drawn) was 2.35.
In the case of `Cc1ccc(NC(=O)c2[nH]nc(C)c2[N+](=O)[O-])cc1`, the logP stood at 2.34.
`CC(C)OC(=O)c1cnc2n(c1=O)C(C)CCC2` (stereo not drawn) showed a logP of 0.99.
Under `CC(=O)OC1C(=O)C2(C)C(O)CC3OCC3(OC(C)=O)C2C(OC(=O)c2ccccc2)C2(O)CC(OC(=O)C(C)O)C(C)=C1C2(C)C` (stereo not drawn) stands 1.52; under `CCCCOc1ccc(NC(=O)OCCN2CCOCC2)cc1`, 3.35.
`O=[N+]([O-])C=C1NCCN1Cc1cnc(Cl)s1` returned a logP of -0.04.
Consider `O=[N+]([O-])C=C1NCCN1Cc1ccncc1`, for which the logP was -1.05.
On to `O=C(CCCN1CCC(C(O)(c2ccccc2)c2ccccc2)CC1)c1ccccc1`, for which the logP was found to be 4.42.
Compound `CCCCCCNC(=O)C1(O)C(C)CC2C3CCC4=CC(=O)C=CC4(C)C3(F)C(O)CC21C` (stereo not drawn) came in with a logP of 4.54.
Under `O=C(Cc1ccccc1)Nc1cccc(C(F)(F)F)c1` stands 3.84; under `COc1cc(C)c2c(c1OC)-c1ccc(NCc3ccccc3)c(=O)cc1C(NC(C)=O)CC2` (stereo not drawn), 3.58.
The value for `CC1CC2C3CCC4=CC(=O)C=CC4(C)C3(F)C(O)CC2(C)C1(O)C(=O)NCc1ccccc1` (stereo not drawn) was 3.28; that for `O=C(O)Cc1nn(Cc2nc3cc(Br)ccc3s2)c(=O)c2ccccc12` was 3.35; that for `CC1CCCC(C)C1NC(=O)N(CCCl)N=O` (stereo not drawn) was 2.57.
`N#CCc1ccc(C(=O)O)cc1`: the logP was 1.18.
`COC1=C(C)C(=O)c2c(c(COC(N)=O)c3n2CCC3OC(C)=O)C1=O` (stereo not drawn) had a logP of 1.54.
In the case of `CCN1C(=O)C(=O)c2c(cccc2[N+](=O)[O-])C1=O`, the logP is 0.82.
For the compound `Cc1nccc2c1[nH]c1ccccc12`, the logP was found to be 3.1.
For the compound `Clc1ccc(-c2c(Cl)ccc(Cl)c2Cl)c(Cl)c1Cl`, the lipophilicity (logP) was 7.04.
Under `C#CCOc1c(Cl)cc(NC=NOCC#N)cc1Cl` stands 3; under `O=c1[nH]nc(SCc2ccccc2)[nH]1`, 1.47; under `Clc1cc(Cl)c(-c2ccc(Cl)c(Cl)c2Cl)c(Cl)c1`, 7.25.
Under `Cn1ccc(=O)cc1` stands -1.22.
Consider `OC1CCN(CCCc2ccc(CSc3ccccc3)cc2)CC1`, for which the logP was 3.67.
Under `CC(=O)NC(CCCN)C(=O)NC(Cc1ccccc1)C(=O)NC(CC(C)C)C(N)=O` (stereo not drawn) (Ac-[Orn]-Phe-Leu-NH2; configuration not given here) stands 0.54; under `CCCCCCCOc1ccc(NC(=O)OCCN2CCOCC2)cc1`, 4.96; under `O=C(NCCO)C(F)(F)Cn1cnc([N+](=O)[O-])n1`, -0.77.
On to `CC(=O)OC(C(=O)NC1C(=O)N2C(C(=O)O)=C(C)CSC12)c1ccccc1` (stereo not drawn), for which the logP came to 1.02.
Under `Cc1n[nH]c(C(=O)NC2CC2)c1[N+](=O)[O-]` stands 0.25.
The compound `CC1(C)COC(Cn2cncn2)(c2ccc(-n3ccnc3)cc2Cl)OC1` came in with a logP of 2.26.
Under `CCCOC(=O)C(C(=O)OC)=C1SC=CS1` stands 2.72; under `O=C1CN=C(c2ccccc2)c2cc(C(F)(F)F)ccc2N1`, 3.1; under `CC(=O)N(CC(O)CO)c1c(I)c(C(=O)NCCO)c(I)c(C(=O)NCCO)c1I` (stereo not drawn), -1.86.
The value for `COC1CC(OC2CCC3(C)C(CCC4C3CCC3(C)C(C5=CC(=O)OC5)C(OC(C)=O)CC43OC(C)=O)C2)OC(C)C1O` (stereo not drawn) was 2.95; that for `Cn1nnnc1SCC1=C(C(=O)OCOC(=O)C(C)(C)C)N2C(=O)C(NC(=O)Cc3csc(N)n3)C2SC1` (stereo not drawn) was 1.36; that for `COc1cc2c(c(OC)c1OC)-c1ccc(OC)c(=O)cc1C(NC(=O)C(F)(F)F)CC2` (stereo not drawn) was 1.72.
The compound `CC1COC(Cn2cncn2)(c2ccc(Oc3ccc(Cl)cc3)cc2Cl)O1` (stereo not drawn) came in with a logP of 4.3.
Under `O=[N+]([O-])N=C1NCCN1Cc1cccnc1` stands -0.19; under `COc1ccc2[nH]c3c(c2c1)CCNc1cc(Cl)ccc1-3`, 4.24.
Under `CNC(=O)C=C(C)OP(=O)(OC)OC` stands -0.2.
The value for `CN(C)c1nc(=O)cc(-c2ccc([N+](=O)[O-])o2)s1` was 0.55; that for `Cc1ccc(NN=C(C#N)C#N)c([N+](=O)[O-])c1` was 2.5.
`CCCCNC(=O)c1n[nH]c(C)c1[N+](=O)[O-]` yielded a logP of 1.27.
The value for `C#CCOc1c(Cl)cc(NC=NOCc2ccccc2)cc1Cl` was 4.2.
Under `CCC(CC)C(=O)NS(=O)(=O)c1ccc(C(F)(F)F)cc1N` stands 3.04.
The value for `Clc1ccc(-c2ccccc2)c(Cl)c1Cl` was 5.86; that for `CC(C)(C)OC(=O)NC(Cc1ccccc1)C(=O)NC(Cc1ccc(O)cc1)C(=O)O` (stereo not drawn) (Boc-Phe-Tyr-OH; configuration not given here) was 2.79.
`Cc1[nH]cnc1CSCCNc1cc(=O)cc[nH]1` came in with a logP of 0.8.
The value for `C#CCOc1c(Cl)cc(NC=NOC)cc1Cl` was 3.3; that for `CC(NC(=O)N(CCCl)N=O)C(=O)O` (stereo not drawn) was 0.78; that for `CCCCCc1cc(OCc2ccc(-c3ccccc3)cc2)c2c(c1)OC(C)(C)C1CC=C(C)CC21` (stereo not drawn) was 10.9.
The value for `CCOC(=O)CCC(C)n1nc2ccccc2n1` (stereo not drawn) was 3.05; that for `CCN(CC)C(=O)N(C)SN(C)C(=O)ON=C(C)SC` was 3.2.
Compound `CC(O)COc1ccc(Cl)cc1` (stereo not drawn) returned a logP of 2.41.
The value for `OCC1CC(F)C(n2cnc3c(I)ncnc32)O1` (stereo not drawn) was 0.63; that for `O=[N+]([O-])c1cnc(-c2ccc(F)cc2)[nH]1` was 1.52; that for `CCOC(=O)c1ccc(N=NN(C)C)cc1` was 3.66.
On to `C#CC1(OC(=O)C2=CN(C)C=CC2)CCC2C3CCC4=CC(=O)CCC4(C)C3CCC21C` (stereo not drawn), for which the lipophilicity (logP) is 4.49.
Under `Cc1cc(O)cc(C)c1O` stands 1; under `O=[N+]([O-])c1nc(Br)[nH]c1Br`, 2.82.
Under `COC(=O)CNC(=O)C1(O)C(C)CC2C3CCC4=CC(=O)C=CC4(C)C3(F)C(O)CC21C` (stereo not drawn) stands 1.69; under `Cc1ncc([N+](=O)[O-])n1CC#N`, -0.07; under `CCN1C(=O)C(=O)c2c(C(N)=O)cccc2C1=O`, -0.5.
Compound `CCC(C)N1C(=O)C(=O)c2ccccc2C1=O` (stereo not drawn) registered a logP of 2.15.
The value for `O=c1[nH]c(Nc2ccccc2)nc2c1ncn2CC(O)CO` (stereo not drawn) was 0.4.
The value for `O=C(NCCCO)C(F)(F)Cn1cnc([N+](=O)[O-])n1` was -0.63; that for `CCCCCNC(=O)C1(O)C(C)CC2C3CCC4=CC(=O)C=CC4(C)C3(F)C(O)CC21C` (stereo not drawn) was 3.64.
Under `C[Si](Cn1cncn1)(c1ccc(F)cc1)c1ccc(F)cc1` stands 3.7.
In turn, `CC(C)(C)N(NC(=O)c1cccc(F)c1)C(=O)c1ccccc1Cl` showed a logP of 2.88.
Take `O=Cc1ccc(O)c2ncccc12`: the logP worked out at 1.63.
The value for `N#CC(C#N)=NNc1ccc(/N=N/c2ccccc2)cc1` was 4.25.
The value for `Oc1ccc(O)c2ncccc12` was 1.42; that for `CCOC(=O)COC(=O)c1cc(Oc2ccc(C(F)(F)F)cc2Cl)ccc1[N+](=O)[O-]` was 3.65.
`O=[N+]([O-])c1nccn1COC(CO)C(O)CO` (stereo not drawn): the logP is -1.47.
The value for `O=C(NCCCCO)C(F)(F)Cn1ccnc1[N+](=O)[O-]` was -0.29.
For `Cc1ccccc1CO[C@H]1C[C@]2(C(C)C)CC[C@@]1(C)O2` (single isomer, unassigned), the logP was found to be 4.62.
The value for `CC(=NOCC(=O)O)c1cc(Oc2ccc(C(F)(F)F)cc2Cl)ccc1[N+](=O)[O-]` was 4.3; that for `NC(=O)Cc1cccc2cccnc12` was 1.87; that for `Cc1cccc(C)c1N` was 1.84.

The record behind these values is the OPERA property sets (Mansouri et al. 2018).
